Source: PubChem BioAssay (NCI)
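Results reflect a 48-hour exposure of cells in 96-well plates to compound at five concentrations. TGI: concentration producing complete growth inhibition.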

Columns and labels:
Experiment in all cases: inhibition of tumour cell growth, NCI panel, 48 h
SNB-75 CNS = test system: SNB-75 CNS
SN12C renal = test system: SN12C renal
OVCAR-5 ovarian = test system: OVCAR-5 ovarian
K-562 leukemia = test system: K-562 leukemia
HCC-2998 colon = test system: HCC-2998 colon
SW-620 colon = test system: SW-620 colon
CAKI-1 renal = test system: CAKI-1 renal
OVCAR-8 ovarian = test system: OVCAR-8 ovarian
T-47D breast = test system: T-47D breast
DU-145 prostate = test system: DU-145 prostate
NCI-H23 lung = test system: NCI-H23 lung
A498 renal = test system: A498 renal
M14 melanoma = test system: M14 melanoma
MDA-MB-435 = test system: MDA-MB-435
ACHN renal = test system: ACHN renal
SK-MEL-28 melanoma = test system: SK-MEL-28 melanoma
MDA-N = test system: MDA-N
PC-3 prostate = test system: PC-3 prostate
TK-10 renal = test system: TK-10 renal
NCI/ADR-RES ovarian = test system: NCI/ADR-RES ovarian
786-0 renal = test system: 786-0 renal
HOP-62 NSCLC = test system: HOP-62 NSCLC
NCI-H460 lung = test system: NCI-H460 lung
IGROV1 ovarian = test system: IGROV1 ovarian
NCI-H226 lung = test system: NCI-H226 lung
MDA-MB-231 breast = test system: MDA-MB-231 breast
NCI-H522 lung = test system: NCI-H522 lung
SK-MEL-2 melanoma = test system: SK-MEL-2 melanoma
UACC-62 melanoma = test system: UACC-62 melanoma
OVCAR-4 ovarian = test system: OVCAR-4 ovarian
HCT-15 colon = test system: HCT-15 colon
HS 578T breast = test system: HS 578T breast
RXF 393 renal = test system: RXF 393 renal
EKVX NSCLC = test system: EKVX NSCLC
U251 CNS = test system: U251 CNS
LOX IMVI melanoma = test system: LOX IMVI melanoma
SK-OV-3 ovarian = test system: SK-OV-3 ovarian
A549 NSCLC = test system: A549 NSCLC
SK-MEL-5 melanoma = test system: SK-MEL-5 melanoma
BT-549 breast = test system: BT-549 breast
CCRF-CEM leukemia = test system: CCRF-CEM leukemia
COLO 205 colon = test system: COLO 205 colon
MCF7 breast = test system: MCF7 breast
SF-539 CNS = test system: SF-539 CNS
RPMI-8226 leukemia = test system: RPMI-8226 leukemia
HCT-116 colon = test system: HCT-116 colon
HT29 colon = test system: HT29 colon
MALME-3M melanoma = test system: MALME-3M melanoma
KM12 colon = test system: KM12 colon
SF-295 CNS = test system: SF-295 CNS
UO-31 renal = test system: UO-31 renal
OVCAR-3 ovarian = test system: OVCAR-3 ovarian
UACC-257 melanoma = test system: UACC-257 melanoma
HL-60(TB) leukemia = test system: HL-60(TB) leukemia
SF-268 CNS = test system: SF-268 CNS
SNB-19 CNS = test system: SNB-19 CNS
HOP-92 NSCLC = test system: HOP-92 NSCLC
MOLT-4 leukemia = test system: MOLT-4 leukemia

Cc1csc(-n2nc(C)cc2C)n1
TGI (SNB-75 CNS): > 100 µM
TGI (SN12C renal): > 100 µM
TGI (OVCAR-5 ovarian): > 100 µM
TGI (K-562 leukemia): > 100 µM
TGI (HCC-2998 colon): > 100 µM
TGI (SW-620 colon): > 100 µM
TGI (CAKI-1 renal): > 100 µM
TGI (OVCAR-8 ovarian): > 100 µM
TGI (T-47D breast): > 100 µM
TGI (DU-145 prostate): > 100 µM
TGI (NCI-H23 lung): > 100 µM
TGI (A498 renal): > 100 µM
TGI (M14 melanoma): > 100 µM
TGI (MDA-MB-435): > 100 µM
TGI (ACHN renal): > 100 µM
TGI (SK-MEL-28 melanoma): > 100 µM
TGI (MDA-N): > 100 µM
TGI (PC-3 prostate): > 100 µM
TGI (TK-10 renal): > 100 µM
TGI (NCI/ADR-RES ovarian): > 100 µM
TGI (786-0 renal): > 100 µM
TGI (HOP-62 NSCLC): > 100 µM
TGI (NCI-H460 lung): > 100 µM
TGI (IGROV1 ovarian): > 100 µM
TGI (NCI-H226 lung): > 100 µM
TGI (MDA-MB-231 breast): > 100 µM
TGI (NCI-H522 lung): > 100 µM
TGI (SK-MEL-2 melanoma): > 100 µM
TGI (UACC-62 melanoma): > 100 µM
TGI (OVCAR-4 ovarian): > 100 µM
TGI (HCT-15 colon): > 100 µM
TGI (HS 578T breast): > 100 µM
TGI (RXF 393 renal): > 100 µM
TGI (EKVX NSCLC): > 100 µM
TGI (U251 CNS): > 100 µM
TGI (LOX IMVI melanoma): > 100 µM
TGI (SK-OV-3 ovarian): > 100 µM
TGI (A549 NSCLC): > 100 µM
TGI (SK-MEL-5 melanoma): > 100 µM
TGI (BT-549 breast): > 100 µM
TGI (CCRF-CEM leukemia): > 100 µM
TGI (COLO 205 colon): > 100 µM
TGI (MCF7 breast): > 100 µM
TGI (SF-539 CNS): > 100 µM
TGI (RPMI-8226 leukemia): > 100 µM
TGI (HCT-116 colon): > 100 µM
TGI (HT29 colon): > 100 µM
TGI (MALME-3M melanoma): > 100 µM
TGI (KM12 colon): > 100 µM
TGI (SF-295 CNS): > 100 µM
TGI (UO-31 renal): > 100 µM
TGI (OVCAR-3 ovarian): > 100 µM
TGI (UACC-257 melanoma): > 100 µM
TGI (HL-60(TB) leukemia): > 100 µM
TGI (SF-268 CNS): > 100 µM
TGI (SNB-19 CNS): > 100 µM

O=C1/C(=N\n2c(-c3ccncc3)n[nH]c2=S)c2cc(Cl)ccc2N1CN1CCCCC1
TGI (SNB-75 CNS): > 100 µM
TGI (SN12C renal): > 100 µM
TGI (OVCAR-5 ovarian): > 100 µM
TGI (K-562 leukemia): > 100 µM
TGI (SW-620 colon): > 100 µM
TGI (CAKI-1 renal): > 100 µM
TGI (OVCAR-8 ovarian): > 100 µM
TGI (T-47D breast): > 100 µM
TGI (DU-145 prostate): > 100 µM
TGI (NCI-H23 lung): > 100 µM
TGI (A498 renal): > 100 µM
TGI (M14 melanoma): > 100 µM
TGI (HOP-92 NSCLC): > 100 µM
TGI (MDA-MB-435): > 100 µM
TGI (ACHN renal): > 100 µM
TGI (SK-MEL-28 melanoma): > 100 µM
TGI (MDA-N): > 100 µM
TGI (PC-3 prostate): > 100 µM
TGI (TK-10 renal): > 100 µM
TGI (NCI/ADR-RES ovarian): > 100 µM
TGI (786-0 renal): > 100 µM
TGI (HOP-62 NSCLC): > 100 µM
TGI (NCI-H460 lung): > 100 µM
TGI (IGROV1 ovarian): 75 µM
TGI (NCI-H226 lung): > 100 µM
TGI (MDA-MB-231 breast): > 100 µM
TGI (NCI-H522 lung): 33.2 µM
TGI (SK-MEL-2 melanoma): 59.2 µM
TGI (UACC-62 melanoma): > 100 µM
TGI (OVCAR-4 ovarian): > 100 µM
TGI (HCT-15 colon): > 100 µM
TGI (HS 578T breast): 93.2 µM
TGI (RXF 393 renal): 38.3 µM
TGI (EKVX NSCLC): > 100 µM
TGI (U251 CNS): > 100 µM
TGI (LOX IMVI melanoma): 40.2 µM
TGI (SK-OV-3 ovarian): > 100 µM
TGI (A549 NSCLC): > 100 µM
TGI (SK-MEL-5 melanoma): > 100 µM
TGI (BT-549 breast): > 100 µM
TGI (MOLT-4 leukemia): 50.3 µM
TGI (CCRF-CEM leukemia): 81.1 µM
TGI (COLO 205 colon): > 100 µM
TGI (MCF7 breast): > 100 µM
TGI (SF-539 CNS): > 100 µM
TGI (HCT-116 colon): > 100 µM
TGI (HT29 colon): > 100 µM
TGI (MALME-3M melanoma): > 100 µM
TGI (KM12 colon): > 100 µM
TGI (SF-295 CNS): > 100 µM
TGI (UO-31 renal): > 100 µM
TGI (OVCAR-3 ovarian): > 100 µM
TGI (UACC-257 melanoma): 76.2 µM
TGI (HL-60(TB) leukemia): 47 µM
TGI (SF-268 CNS): > 100 µM
TGI (SNB-19 CNS): > 100 µM
